Reference: patent US20260116867A1, “PROTEOLYSIS TARGETING CHIMERAS FOR HUMAN PREGNANE X RECEPTOR AND FOR DEGRADATION OF GSPT1” (ST. JUDE CHILDREN'S RESEARCH HOSPITAL, priority 2022, published 2026)

Experiments:
[1] = test system: SNU—C4 3xFLAG-PXR KI cell lines stably expressing HA-tagged GSPT1^G575N; assay: Cytotoxicity assay in cells overexpressing degradation-resistant GSPT1 mutant; assay type: cell-based, human; conditions: FIG. 7B-C
Procedure: Complete information for all plasmids is included in Table 1 below. […] Lentiviruses for pCDH-GSPT1 or pCDH-GSPT1^G575N were generated in 293T cells using psPAX2 and pMD2.G packaging vectors. The packaging vectors were gifts from Dr. Didier Trono (Addgene plasmid #12259 and 12260).
(§1) The indicated cells (2.5×10^3/well in 40 μL RPMI with 10% FBS) were plated in the 384-well plates, resulting in 0.5% DMSO and the indicated concentrations of chemicals. After 72 h compound treatment, the CellTiter-Glo Luminescent Cell Viability Assay (Promega) and an EnVision microplate reader were used to assess cytotoxicity. Wells containing DMSO alone or 10 μM staurosporine served as negative and positive controls, respectively. The percent cell viability for each well was calculated using equation 1: […]

[2] = test system: SNU—C4 3xFLAG-PXR KI cells; assay: Cytotoxicity assay (CellTiter-Glo, 72 h); assay type: cell-based, human; conditions: SNU—C4 3xFLAG-PXR KI cells, 72 h, FIG. 7A; read-out: half maximal cytotoxic concentration (CC50)
Procedure: as §1

[3] = molecular target: T1, PXR (Homo sapiens, UniProt O75469); assay: Western blot of endogenous 3xFLAG-PXR protein in SNU—C4 3xFLAG-PXR KI cells; assay type: cell-based; design: To assess SJPYT-195 activity against endogenous PXR, CRISPR-Cas9 was used; endogenous in cells; conditions: western blot, SNU—C4 3xFLAG-PXR KI cells
T1 sequence (O75469 1-434): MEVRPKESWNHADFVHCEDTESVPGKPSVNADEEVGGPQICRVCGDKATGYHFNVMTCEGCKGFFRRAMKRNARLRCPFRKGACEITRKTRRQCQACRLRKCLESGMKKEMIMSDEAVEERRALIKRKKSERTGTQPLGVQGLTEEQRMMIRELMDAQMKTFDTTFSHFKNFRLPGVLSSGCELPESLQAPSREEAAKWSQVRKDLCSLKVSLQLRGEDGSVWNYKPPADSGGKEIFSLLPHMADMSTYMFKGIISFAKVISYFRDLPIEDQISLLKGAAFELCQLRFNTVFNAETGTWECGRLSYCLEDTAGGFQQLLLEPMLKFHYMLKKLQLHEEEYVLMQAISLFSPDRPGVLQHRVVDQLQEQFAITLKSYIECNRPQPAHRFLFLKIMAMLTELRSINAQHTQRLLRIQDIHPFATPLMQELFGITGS
Procedure: The following day, DMSO or compounds were added to result in 0.5% DMSO and the indicated compound concentrations, and cells were incubated for the indicated time points. Cells were lysed and subjected to western blotting as above using antibodies against FLAG (Sigma-Aldrich, cat. #F3165, 1:2,000 dilution), GSPT1 (Abcam, cat. #ab126090, 1:4,000 dilution), and R-Actin (Cell Signaling Technology, cat. #4967, 1:2,000 dilution).

[4] = molecular target: T1, PXR; assay: cell-based hPXR antagonistic assay
[5] = molecular target: T1, PXR; assay: cell-based hPXR agonistic assay
[6] = molecular target: T1, PXR; assay: hPXR binding assay
[7] = molecular target: T2, HiBiT-FKBP12^F36V-PXR (Homo sapiens, UniProt O75469+P62942, F37V); assay: HiBiT assay for degradation of overexpressed protein in HepG2 cells; assay type: cell-based; conditions: FIG. 2C
T2 construct: expressed in transfected cells; host or cells: HepG2 cells (transient, Lipofectamine 3000)
Procedure: HepG2 cells (5×10^6 cells/dish) were plated in tissue culture-treated 10 cm dishes in 10 mL EMEM with 10% FBS. The next day, cells were transfected with 5 μg pcDNA3-HiBiT-FKBP^F36V-2xHA-PXR and either 5 μg pcDNA3 vector or 5 μg pcDNA3-HA-CRBN using Lipofectamine 3000 (Thermo Fisher Scientific). After 24 h, cells were trypsinized, resuspended in assay media, and plated in white tissue culture-treated 384-well plates (1.5×10^4 cells/well in 25 μL medium). […] The plates were incubated for 24 h, and the Nano-Glo HiBiT Lytic Detection System (Promega) and an EnVision microplate reader were used to measure HiBiT signal. Results are reported as fold change relative to DMSO control cells.
To establish a method for discovery of PXR degraders in the absence of a known PXR-degrading control, the degradation tag (dTAG) system was used. With this method, a protein of interest (PXR) is fused to a cytosolic prolyl isomerase, FKBP12, with Phe36 mutated to Val (FKBP12^F36V) (FIG. 2A). A PROTAC molecule, dTAG-13 (FIG. 2B), is then used to induce degradation of the fusion protein through recruitment of the CUL4-RBX1-DDB1-CRBN (CRL4^CRBN) E3 ubiquitin ligase, without affecting the cellular FKBP12 protein. An HA tag was added for western blot detection, and a HiBiT tag was fused to the N-terminus to allow high-throughput plate-based quantification of HiBiT-FKBP12^F36V-PXR protein levels (FIG. 2A). […] This was also observed when the HA tag was detected by western blot (FIG. 2D). The HiBiT detection was more sensitive to protein level changes than western blot, and, importantly, overexpression of CRBN was required to achieve dTAG-13-mediated degradation of the overexpressed HiBiT-FKBP12^F36V-PXR protein.

T2 sequence (P62942+O75469 fused P62942:F37V): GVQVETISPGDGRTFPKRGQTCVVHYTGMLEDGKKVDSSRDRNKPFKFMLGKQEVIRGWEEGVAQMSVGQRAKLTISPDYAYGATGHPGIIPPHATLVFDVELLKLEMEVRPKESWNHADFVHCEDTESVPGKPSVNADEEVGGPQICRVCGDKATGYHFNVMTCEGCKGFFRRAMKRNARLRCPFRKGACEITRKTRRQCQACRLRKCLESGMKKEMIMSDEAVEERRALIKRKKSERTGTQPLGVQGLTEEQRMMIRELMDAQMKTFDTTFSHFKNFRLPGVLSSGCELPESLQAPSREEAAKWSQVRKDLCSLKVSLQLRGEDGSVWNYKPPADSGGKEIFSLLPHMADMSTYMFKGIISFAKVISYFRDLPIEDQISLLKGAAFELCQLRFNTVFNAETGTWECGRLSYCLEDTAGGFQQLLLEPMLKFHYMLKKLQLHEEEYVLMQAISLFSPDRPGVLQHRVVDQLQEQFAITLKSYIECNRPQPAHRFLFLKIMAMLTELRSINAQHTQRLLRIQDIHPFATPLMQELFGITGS
T2 sequence (Q96SW2 whole entry partner): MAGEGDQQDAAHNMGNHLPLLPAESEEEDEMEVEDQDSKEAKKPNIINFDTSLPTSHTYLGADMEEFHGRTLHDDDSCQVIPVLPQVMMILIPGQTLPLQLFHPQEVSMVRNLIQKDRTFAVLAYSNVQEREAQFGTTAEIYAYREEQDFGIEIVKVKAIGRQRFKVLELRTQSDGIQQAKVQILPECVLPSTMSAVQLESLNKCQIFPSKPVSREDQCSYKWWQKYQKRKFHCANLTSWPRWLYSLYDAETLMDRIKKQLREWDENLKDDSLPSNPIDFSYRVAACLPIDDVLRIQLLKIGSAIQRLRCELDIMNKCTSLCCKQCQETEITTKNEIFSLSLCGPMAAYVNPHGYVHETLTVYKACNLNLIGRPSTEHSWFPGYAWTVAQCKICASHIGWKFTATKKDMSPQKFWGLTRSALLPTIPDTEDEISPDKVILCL

SMILES: Cc1ccc(NC(=O)NCc2ccc3c(c2)CN(C2CCC(=O)NC2=O)C3=O)cc1Cl (centres unmarked) [CC-885, reference compound]
- cytotoxicity in cells overexpressing GSPT1^G575N [1]: partially resistant
- CC50 [2]: 3.3 ± 0.3 nM
- PXR protein level (in words) [3]: also reduced PXR protein

SMILES: COc1ccc(OC)c(-n2nnc(C(=O)Nc3cc(C(C)(C)C)ccc3OCCCCOc3cccc4c3C(=O)N(C3CCC(=O)NC3=O)C4=O)c2C)c1 (centres unmarked) [Compound M12, N-(5-(tert-butyl)-2-(4-((2-(2,6-dioxopiperidin-3-yl)-1,3-dioxoisoindolin-4-yl)oxy)butoxy)phenyl)-1-(2,5-dimethoxyphenyl)-5-methyl-1H-1,2,3-triazole-4-carboxamide]
- inhibition at 10 µM ([4]; read-out: Antagonist (% inhibition at 10 μM)): 28%
- IC50 ([4]; read-out: Antagonist (IC50/μM)): 0.67 ± 0.26 µM
- Agonist (% activation at 10 μM) ([5]; 10 μM, rifampicin at 10 μM as 100% activation, DMSO (0.3%) as 0%): (33 ± 1)%
- EC50 ([5]; NA = no value within concentration range tested (highest 30 μM), read-out: Agonist (EC50/μM)): 0.27 ± 0.078 µM
- IC50 [6]: 0.032 ± 0.002 µM
- inhibition at 10 µM ([6]; read-out: Binding (% inhibition at 10 μM)): 56%

SMILES: CC[C@H](C(=O)N1CCCC[C@H]1C(=O)O[C@H](CCc1ccc(OC)c(OC)c1)c1ccccc1OCC(=O)NCCCCCCOc1cccc2c1C(=O)N(C1CCC(=O)NC1=O)C2=O)c1cc(OC)c(OC)c(OC)c1 (some centres unmarked) [dTAG-13]
- HiBiT signal, CRBN co-overexpressed ([7]; HepG2 overexpressing HiBiT-FKBP12^F36V-PXR and CRBN): potently reduced HiBiT signal
- HiBiT signal, without CRBN co-overexpression ([7]; HepG2 overexpressing HiBiT-FKBP12^F36V-PXR): only a slight reduction in HiBiT signal
